Measured values reported in patent US9958439B2, “Carbohydrate detection” (RICHTER LIFE SCIENCE DEVELOPMENT AB, priority 2012, dated 2018).
Read-outs that look alike come from different tables or passages of the source.

Assays:
[1] = for RFU change (Correlation analysis): probe-specific excitation λ, emission 545 nm; for Gradient Parameters (gradient of regression line) / Linear relationship / Quality of Gradient: linear regression
Method: (§1) 3 μM of each probe was applied to serial two fold dilutions of the carbohydrate of which the concentration shown here are 5 mg/ml (_.), 2.5 mg/ml (. . . ), 1.25 mg/ml (__) and 0 mg/ml (_). The excitation spectrum of the probe was analyzed for wavelengths 300-500 nm with emission read at 545 nm.
(§2) 3 μM of each probe was applied to serial two fold dilutions of the carbohydrate. Respective probes were excited at wavelengths unique to each probe (specified in figure), and emission was read at 545 nm.
(§3) Serial dilutions of carbohydrate suspensions were prepared in dH2O. Concentrations ranging from 10 to 0.039 mg/ml was used for β-1,3-glucan, cellulose and chitin, whereas 5 to 0.019 mg/ml was used for sodium alginate, glucose, amylose, glycogen, cellulobiose, heparin, chondroitin sulfate A. 3 μM of each LCO probe was added to 1 ml aliquots of each concentration of carbohydrate, after which 100 μl was dispensed in triplicates into 96 well plates. Excitation spectra were collected by exciting the sample from 300 to 500 nm and detecting emission at 545 nm. Detection of carbohydrate is concluded when there is a reproducible change in λmax and/or RFU intensity with reference to the negative control. Data from three concentrations, as well as the negative control are shown for each carbohydrate as specified in respective figure.
(§4) The excitation wavelength (emission detected at 545 nm) selected for each LCO is either (1) the λmax, or (2) the excitation wavelength which suffers the lowest background. A linear regression analysis is performed to determine the relationship between the carbohydrate concentration and RFU.

[2] = for RFU change (Correlation analysis): probe-specific excitation λ, emission 545 nm; for carbohydrate can be detected and/or differentiated by the LCO: conclusion from change in signal magnitude and/or shift in λmax
Method: (§5) The excitation spectrum of the probe was analyzed for wavelengths 300-500 nm with emission read at 545 nm.
(§6) 3 μM of each probe was applied to serial two fold dilutions of the insoluble carbohydrate. Respective probes were excited at wavelengths unique to each probe (specified in figure), and emission was read at 545 nm.
as §3, §4

[3] = for RFU change (Correlation analysis): probe-specific excitation λ, emission 545 nm; for carbohydrate can be detected and/or differentiated by the LCO: conclusion from change in signal magnitude and/or shift in λmax; remark: listed apart in the source
Method: (§7) 3 μM of each probe was applied to serial two fold dilutions of the carbohydrate of which the concentration shown here are 5 mg/ml (_.), 2.5 mg/ml (. . . ) 1.25 mg/ml (__) and 0 mg/ml (_). The excitation spectrum of the probe was analyzed for wavelengths 300-500 nm with emission read at 545 nm.
as §2, §3, §4

[4] = Method: as §5, §2, §3, §4
[5] = remark: listed apart in the source
Method: as §1, with “of the insoluble carbohydrate of” for “of the carbohydrate of”
as §6, §3, §4

[6] = remark: listed apart in the source
Method: as §7
3 μM of each probe was applied to serial two fold dilutions of the carbohydrate. Respective probes were excited at wavelengths unique to each probe (specified in figure), and emission was read at 545 nm. […] The mean increase in signal (_) with [Glucose] and the fitted regression line (__) is shown.
as §3, §4

[7] = Glycogen 5-0.019 mg/ml, 3 μM probe, spectral analysis, Excitation 300-500, Emission 545
[8] = Chitin 10-[…], 3 μM probe, spectral analysis, Excitation 300-500, Emission 545
[9] = cellulose concentration vs RFU, linear regression
[10] = chitin concentration vs RFU, linear regression
[11] = β-1,3-glucan concentration vs RFU, linear regression
[12] = Cellulobiose 5-0.019 mg/ml, 3 μM probe, spectral analysis, Excitation 300-500, Emission 545
[13] = amylose concentration vs RFU, linear regression
[14] = cellulobiose concentration vs RFU, linear regression
[15] = Chondroitin Sulfate A 5-0.019 mg/ml, 3 μM probe, spectral analysis, Excitation 300-500, Emission 545
[16] = Chondroitin Sulfate A concentration vs RFU, linear regression
[17] = sodium alginate concentration vs RFU, linear regression
[18] = glucose concentration vs RFU, linear regression

O=C([O-])C[C@H](NC(=O)Cc1cc(-c2cccs2)sc1-c1ccc(-c2sc(-c3cccs3)cc2CC(=O)N[C@@H](CC(=O)[O-])C(=O)[O-])s1)C(=O)[O-].[Na+].[Na+].[Na+].[Na+] [pHTA-Asp, penta Hydrogen Thiophene Acetic acid Aspartic acid]
RFU change (Correlation analysis) ([1]; Glycogen 5-0.019 mg/ml, 3 μM probe): Decreases
RFU change (Signal deviation with increasing [Carbohydrate]) [1, 7]: Decreases
λmax change [1, 7]: Redshift
carbohydrate can be detected and/or differentiated by the LCO ([1]; Glycogen, conclusion from change in signal magnitude and/or shift in λmax): can be detected and/or differentiated
RFU change (Correlation analysis) ([1]; Heparin 5-0.019 mg/ml, 3 μM probe): Unclear
RFU change (Signal deviation with increasing [Carbohydrate]) ([1]; Heparin 5-0.019 mg/ml, 3 μM probe, spectral analysis, Excitation 300-500, Emission 545): Unclear
Gradient Parameters (gradient of regression line) ([1]; glycogen concentration vs RFU): −665.8 ± 88.9
Linear relationship ([1]; glycogen concentration vs RFU): Significant
Quality of Gradient ([1]; glycogen concentration vs RFU): Negative
Gradient Parameters (gradient of regression line) ([1]; heparin concentration vs RFU): −3.2 ± 49.3
Linear relationship ([1]; heparin concentration vs RFU): Not Significant
Quality of Gradient ([1]; heparin concentration vs RFU): Horizontal
Sensitivity ([1]; to glycogen): Yes
Sensitivity ([1]; to heparin): No
RFU change (Correlation analysis) ([2]; Cellulose 10-[…], 3 μM probe): Unclear
RFU change (Signal deviation with increasing [Carbohydrate]) ([2]; Cellulose 10-[…], 3 μM probe, spectral analysis, Excitation 300-500, Emission 545): Unclear
RFU change (Correlation analysis) ([2]; Chitin 10-[…], 3 μM probe): Increases
RFU change (Signal deviation with increasing [Carbohydrate]) [2, 8]: Increases
λmax change [2, 8]: Redshift
carbohydrate can be detected and/or differentiated by the LCO ([2]; Chitin): can be detected and/or differentiated
Gradient Parameters (gradient of regression line) [2, 9]: 12.3 ± 64.4
Quality of Gradient [2, 9]: Horizontal
Gradient Parameters (gradient of regression line) [2, 10]: 3138 ± 491.2
Linear relationship [2, 10]: Significant
Quality of Gradient [2, 10]: Positive
Sensitivity ([2]; to cellulose): No
Sensitivity ([2]; to chitin): Yes
Sensitivity ([2]; to β-1,3-glucan): Yes
carbohydrate can be detected and/or differentiated by the LCO ([2]; β-1,3-Glucan): can be detected and/or differentiated
RFU change (Correlation analysis) ([2]; β-1,3-glucan 10-[…], 3 μM probe): Decrease
RFU change (Signal deviation with increasing [Carbohydrate]) ([2]; β-1,3-glucan 10-[…], 3 μM probe, spectral analysis, Excitation 300-500, Emission 545): Decrease
Gradient Parameters (gradient of regression line) [2, 11]: −792.9 ± 97.3
Quality of Gradient [2, 11]: Negative
RFU change (Correlation analysis) ([3]; Amylose 5-0.019 mg/ml, 3 μM probe): Increases
RFU change (Signal deviation with increasing [Carbohydrate]) ([3]; Amylose 5-0.019 mg/ml, 3 μM probe, spectral analysis, Excitation 300-500, Emission 545): Increases
carbohydrate can be detected and/or differentiated by the LCO ([3]; Amylose): can be detected and/or differentiated
RFU change (Correlation analysis) ([3]; Cellulobiose 5-0.019 mg/ml, 3 μM probe): Increases
RFU change (Signal deviation with increasing [Carbohydrate]) [3, 12]: Increases
λmax change [3, 12]: No change
carbohydrate can be detected and/or differentiated by the LCO ([3]; Cellulobiose): can be detected and/or differentiated
Gradient Parameters (gradient of regression line) [3, 13]: −7.6 ± 208.9
Quality of Gradient [3, 13]: Horizontal
Linear relationship [3, 14]: Significant
Quality of Gradient [3, 14]: Positive
Sensitivity ([3]; to amylose): Yes
Sensitivity ([3]; to cellulobiose): Yes
RFU change (Correlation analysis) ([4]; Chondroitin Sulfate A 5-0.019 mg/ml, 3 μM probe, probe-specific excitation λ, emission 545 nm): Unclear
RFU change (Signal deviation with increasing [Carbohydrate]) [4, 15]: Unclear
λmax change [4, 15]: No change
Gradient Parameters (gradient of regression line) [4, 16]: −67.88 ± 90.0
Quality of Gradient [4, 16]: Horizontal
Sensitivity ([4]; to Chondroitin Sulfate A): No
RFU change (Correlation analysis) ([5]; Sodium alginate 5-0.019 mg/ml, 3 μM probe, probe-specific excitation λ, emission 545 nm): Unclear
RFU change (Signal deviation with increasing [Carbohydrate]) ([5]; Sodium alginate 5-0.019 mg/ml, 3 μM probe, spectral analysis, Excitation 300-500, Emission 545): Unclear
Gradient Parameters (gradient of regression line) [5, 17]: 41.4 ± 59.6
Quality of Gradient [5, 17]: Horizontal
Sensitivity ([5]; to sodium alginate): No
RFU change (Correlation analysis) ([6]; Glucose 5-0.019 mg/ml, 3 μM probe, probe-specific excitation λ, emission 545 nm): Increases
RFU change (Signal deviation with increasing [Carbohydrate]) ([6]; Glucose 5-0.019 mg/ml, 3 μM probe, spectral analysis, Excitation 300-500, Emission 545): Increases
carbohydrate can be detected and/or differentiated by the LCO ([6]; Glucose, conclusion from change in signal magnitude and/or shift in λmax): can be detected and/or differentiated
Gradient Parameters (gradient of regression line) [6, 18]: 625.1 ± 130.2
Linear relationship [6, 18]: Significant
Quality of Gradient [6, 18]: Positive
Sensitivity ([6]; to glucose): Yes
